These results are taken from ChEMBL document CHEMBL1201862, “PubChem BioAssay data set” (2004).

Molecules are shown by their SMILES.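 How tested: cells in 96-well plates exposed to compound for 48 hours at five concentrations. Here, GI50 denotes the concentration required for 50% inhibition of growth.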 The source made the active and inactive calls. No stated cut-off is given here; in the data, active = GI50 up to about 1.1 µM and inactive = higher.

Holding throughout (assay): growth of human tumour cells (NCI), 48 h
Test [1] deals with Malme-3M.
Test [2] has as its system CAKI-1.
For test [3], the system named is HT-29.
Test [4] relates to SNB-75.
Test [5] deals with K562.
Test [6] relates to SN12C.
Test [7] concerns UACC-257.
The subject of test [8] is MDA-MB-435.
Test [9] relates to MCF7.
The subject of test [10] is UO-31.
Test [11] deals with SF-295.
For test [12], the system named is 786-0.
Test [13] has as its system NCI-H522.
In test [14] the test system is NCI-H226.
Test [15] concerns KM12.
Test [16] has as its system NCI-H460.
For test [17], the system named is PC-3.
Test [18] concerns EKVX.
Test [19] concerns RPMI-8226.
Test [20] concerns CCRF-CEM.

With `Clc1ccccc1CN1COc2c(cc(Cl)c3cccnc23)C1`, the GI50 in test [1] is 2.47 µM (inactive); in test [2], 4.49 µM (inactive); in test [3] it was 19.2 µM (inactive); in [4] it was 5.68 µM (inactive); in test [5] it was 2.99 µM (inactive); in test [6], 0.0249 µM (active). The GI50 in test [7] was 3.43 µM (inactive); in [8] it was 6.19 µM (inactive); in [9], 4.94 µM (inactive); in test [10], 2.89 µM (inactive); in test [11], 1.85 µM (inactive); in test [12], 4.39 µM (inactive). The GI50 was 3.4 µM (inactive) in test [13]; 1.3 µM (inactive) in [14]; 3.03 µM (inactive) in test [15]; 2.75 µM (inactive) in test [16]; 2.57 µM (inactive) in [17].

Consider `N#CCCN(CCC#N)c1ccc(/C=C2\N=C(c3ccccc3)N(c3ccc(C(=O)O)cc3)C2=O)cc1`, for which the GI50 is 95.1 µM (inactive) in [3]; 38.2 µM (inactive) in [5]; 70.1 µM (inactive) in test [6]; 37.2 µM (inactive) in test [7]; 31.8 µM (inactive) in [8]; 37.6 µM (inactive) in test [9]. Besides, the GI50 in [10] is 77.1 µM (inactive); in test [18] it was 26.2 µM (inactive); in test [11], 48.8 µM (inactive); in test [12], 52 µM (inactive); in [14], 27.9 µM (inactive); in test [19], 46.8 µM (inactive). The GI50 in test [15] is 17.2 µM (inactive); in test [16], 27.6 µM (inactive); in test [17] it was 37.5 µM (inactive).

As for `CC(C)(C)OC(=O)N1CCC2(C)CC(=O)CC=C12` (centres undefined), the GI50 in test [1], in test [2], in [3], in test [4], in test [5] and in [6] was > 100 µM (inactive) each time. Further, the GI50 in test [7] was 28.2 µM (inactive); in test [8], > 100 µM (inactive); in test [9], > 100 µM (inactive); in test [10] it was > 100 µM (inactive); in [18], > 100 µM (inactive); in test [20] it was 27.2 µM (inactive). In addition, the GI50 in test [11] was > 100 µM (inactive); in [12], > 100 µM (inactive); in test [13], 45.4 µM (inactive); in test [14], > 100 µM (inactive); in test [15], > 100 µM (inactive); in test [16] it was > 100 µM (inactive). The GI50 in [17] was > 100 µM (inactive).

As for `CNC(=O)OCC1=C(COC(=O)NC)C(C)N(c2ccc(OC)cc2)C1` (centres undefined), the GI50 in [1] is > 100 µM (inactive); in test [3] it was 64.9 µM (inactive); in test [4], 29.4 µM (inactive); in [5] it was 69.2 µM (inactive); in test [6] it was > 100 µM (inactive); in [7], 36.7 µM (inactive). In addition, the GI50 is > 100 µM (inactive) in [8]; 50.6 µM (inactive) in test [9]; 41.6 µM (inactive) in test [10]; > 100 µM (inactive) in test [18]; 47.2 µM (inactive) in test [20]; 88.9 µM (inactive) in test [11]. Further, the GI50 was 57 µM (inactive) in test [12]; 1.18 µM (inactive) in test [14]; 58.6 µM (inactive) in test [19]; > 100 µM (inactive) in test [15]; 23 µM (inactive) in [16]; 71.6 µM (inactive) in test [17].

As for `COc1ccc(/C=N/NS(=O)(=O)c2ccc(/C=C3\NC(=O)NC3=O)cc2)cc1`, the GI50 was > 100 µM (inactive) in test [1]; > 100 µM (inactive) in test [2]; > 100 µM (inactive) in [3]; 23.9 µM (inactive) in [4]; > 100 µM (inactive) in test [5]; > 100 µM (inactive) in test [6]. Moreover, the GI50 in [7], in test [8], in [9], in test [10], in test [18] and in [20] was > 100 µM (inactive) throughout. The GI50 in test [11] is 89.5 µM (inactive); in [12] it was 47.1 µM (inactive); in test [14] it was > 100 µM (inactive); in test [19], > 100 µM (inactive); in [15], > 100 µM (inactive); in test [16], > 100 µM (inactive). In addition, the GI50 in [17] was > 100 µM (inactive).

For `CCCCNC(=S)c1ccc(OC(=O)Nc2ccc(Cl)cc2)cc1`, the GI50 is 79.8 µM (inactive) in [1]; 18.5 µM (inactive) in [2]; 8.18 µM (inactive) in test [3]; 1.83 µM (inactive) in [5]; 77.4 µM (inactive) in test [7]; 70.1 µM (inactive) in test [8]. Besides, the GI50 is 41.7 µM (inactive) in test [9]; 19.7 µM (inactive) in test [10]; 42.2 µM (inactive) in test [18]; 26.3 µM (inactive) in [20]; > 100 µM (inactive) in [11]; > 100 µM (inactive) in test [12]. Besides, the GI50 in test [13] is 24.5 µM (inactive); in [19] it was 65.2 µM (inactive); in test [15], 2.75 µM (inactive); in test [16] it was 10.4 µM (inactive); in [17], > 100 µM (inactive).

As to `c1ccc2c(c1)nc1n2CCSC1`, the GI50 in test [2], in test [3], in [4], in [5], in [6] and in [7] was > 100 µM (inactive) throughout. Moreover, the GI50 in test [8], in [9], in test [10], in [18], in [20] and in test [11] was > 100 µM (inactive) in each case. In addition, the GI50 in test [12], in test [19], in [15], in test [16] and in [17] was > 100 µM (inactive) throughout.

For the compound `O=C(Nc1ccc(Cl)cc1C(F)(F)F)C(=O)Nn1c(S)nc2ccccc2c1=O`, the GI50 in test [2] was > 100 µM (inactive); in test [3], > 100 µM (inactive); in [4], 27.8 µM (inactive); in test [5] it was > 100 µM (inactive); in test [6], > 100 µM (inactive); in test [7] it was > 100 µM (inactive). Also, the GI50 in [8] is > 100 µM (inactive); in test [9], > 100 µM (inactive); in [10], > 100 µM (inactive); in test [20], 59.8 µM (inactive); in test [11], > 100 µM (inactive); in test [12], > 100 µM (inactive). The GI50 in test [14], in test [19], in test [15], in test [16] and in test [17] was > 100 µM (inactive) in each case.
